Measured values: ChEMBL document CHEMBL6134861 (J Med Chem, 2025)
Calls of active or inactive are those of the source. The rule behind the calls is not given here. Where a SMILES comes first, the peptide text is derived from it. Bridges are numbered along the chain shown (N, C = ends). [ ]: non-standard residue; d: D form. ξ: configuration not given here. ξD = NC(CC(=O)O)C(=O)O

Legend:
Type in all cases: cell-based
Oocyte [1] = test: Inhibition of human alpha2/beta2 nAChR expressed in Xenopus laevis oocytes at 10 uM
[2] = target: Neuronal acetylcholine receptor; alpha2/beta4 (Homo sapiens) (UniProt P30926+Q15822); test: Inhibition of human alpha2/beta4 nAChR expressed in Xenopus laevis oocytes at 10 uM; settings: Oocyte
[3] = target: Neuronal acetylcholine receptor; alpha3/beta4 (Homo sapiens) (UniProt P30926+P32297); test: Inhibition of human alpha3/beta4 nAChR expressed in Xenopus laevis oocytes at 10 uM; settings: Oocyte
[4] = target: Neuronal acetylcholine receptor; alpha3/beta2 (Homo sapiens) (UniProt P17787+P32297); test: Inhibition of human alpha3/beta2 nAChR expressed in Xenopus laevis oocytes at 10 uM; settings: Oocyte
[5] = target: Neuronal acetylcholine receptor; alpha4/beta4 (Homo sapiens) (UniProt P30926+P43681); test: Inhibition of human alpha4/beta4 nAChR expressed in Xenopus laevis oocytes at 10 uM; settings: Oocyte
[6] = target: Neuronal acetylcholine receptor; alpha4/beta2 (Homo sapiens) (UniProt P17787+P43681); test: Inhibition of human alpha4/beta2 nAChR expressed in Xenopus laevis oocytes at 10 uM; settings: Oocyte
[7] = target: Nicotinic acetylcholine receptor alpha6/alpha3/beta4 (Homo sapiens) (UniProt P30926+P32297+Q15825); test: Inhibition of human alpha6/alpha3/beta4 nAChR expressed in Xenopus laevis oocytes at 10 uM; settings: Oocyte
Oocyte [8] = test: Inhibition of human alpha6/alpha3/beta2/beta3 nAChR expressed in Xenopus laevis oocytes at 10 uM
[9] = target: Neuronal acetylcholine receptor; alpha9/alpha10 (Homo sapiens) (UniProt Q9UGM1+Q9GZZ6); test: Inhibition of human alpha9/alpha10 nAChR expressed in Xenopus laevis oocytes at 10 uM; settings: Oocyte
[10] = target: Neuronal acetylcholine receptor subunit alpha-7 (Homo sapiens) (UniProt P36544); test: Inhibition of human alpha7 nAChR expressed in Xenopus laevis oocytes at 10 uM; settings: Oocyte
[11] = target: Neuronal acetylcholine receptor subunit alpha-7 (Rattus norvegicus) (UniProt Q05941); test: Inhibition of rat alpha7 nAChR expressed in Xenopus laevis oocytes assessed as inhibition of acetylcholine-induced current at 100 nM preincubated with compound for 1 hr followed by compound washout and measured for 20 mins by two electrode voltage-clamp assay; settings: Oocyte
[12] = target: Neuronal acetylcholine receptor subunit alpha-7 (Rattus norvegicus) (UniProt Q05941); test: Inhibition of rat alpha7 nAChR expressed in Xenopus laevis oocytes assessed as inhibition of acetylcholine-induced current at 10 uM by two electrode voltage-clamp assay; settings: Oocyte
[13] = target: Neuronal acetylcholine receptor; alpha3/beta2 (Rattus norvegicus) (UniProt P04757+P12390); test: Inhibition of rat alpha3/beta2 nAChR expressed in Xenopus laevis oocytes assessed as inhibition of acetylcholine-induced current at 10 uM by two electrode voltage-clamp assay; settings: Oocyte
Oocyte [14] = test: Inhibition of rat alpha6/alpha3/beta2/beta3 nAChR expressed in Xenopus laevis oocytes assessed as inhibition of acetylcholine-induced current at 10 uM by two electrode voltage-clamp assay
[15] = target: Neuronal acetylcholine receptor; alpha3/beta4 (Rattus norvegicus) (UniProt P04757+P12392); test: Inhibition of rat alpha3/beta4 nAChR expressed in Xenopus laevis oocytes assessed as inhibition of acetylcholine-induced current at 10 uM by two electrode voltage-clamp assay; settings: Oocyte
[16] = target: Nicotinic acetylcholine receptor alpha6/alpha3/beta4 (Rattus norvegicus) (UniProt P04757+P12392+P43143); test: Inhibition of rat alpha6/alpha3/beta4 nAChR expressed in Xenopus laevis oocytes assessed as inhibition of acetylcholine-induced current at 10 uM by two electrode voltage-clamp assay; settings: Oocyte
[17] = target: Neuronal acetylcholine receptor; alpha2/beta2 (Rattus norvegicus) (UniProt P12389+P12390); test: Inhibition of rat alpha2/beta2 nAChR expressed in Xenopus laevis oocytes assessed as inhibition of acetylcholine-induced current at 10 uM by two electrode voltage-clamp assay; settings: Oocyte
Oocyte [18] = test: Inhibition of rat alpha2/beta4 nAChR expressed in Xenopus laevis oocytes assessed as inhibition of acetylcholine-induced current at 10 uM by two electrode voltage-clamp assay
[19] = target: T1, Neuronal acetylcholine receptor; alpha4/beta2 (Rattus norvegicus) (UniProt P09483+P12390); test: Inhibition of rat alpha4/beta2 nAChR expressed in Xenopus laevis oocytes assessed as inhibition of acetylcholine-induced current at 10 uM by two electrode voltage-clamp assay; settings: Oocyte
[20] = target: T1, Neuronal acetylcholine receptor; alpha4/beta2 (Rattus norvegicus); test: Inhibition of rat alpha4/beta4 nAChR expressed in Xenopus laevis oocytes assessed as inhibition of acetylcholine-induced current at 10 uM by two electrode voltage-clamp assay; settings: Oocyte
[21] = target: Nicotinic acetylcholine receptor alpha9/alpha10 (Rattus norvegicus) (UniProt P43144+Q9JLB5); test: Inhibition of rat alpha9/alpha10 nAChR expressed in Xenopus laevis oocytes assessed as inhibition of acetylcholine-induced current at 10 uM by two electrode voltage-clamp assay; settings: Oocyte
Oocyte [22] = test: Inhibition of mouse alpha1/beta1/delta/epsilon nAChR expressed in Xenopus laevis oocytes assessed as inhibition of acetylcholine-induced current at 10 uM by two electrode voltage-clamp assay
[23] = Inhibition of rat alpha6/alpha3/beta2/beta3 nAChR expressed in Xenopus laevis oocytes assessed as inhibition of acetylcholine-induced current by two electrode voltage-clamp assay; settings: Oocyte
[24] = Inhibition of rat alpha2/beta4 nAChR expressed in Xenopus laevis oocytes assessed as inhibition of acetylcholine-induced current by two electrode voltage-clamp assay; settings: Oocyte
[25] = Inhibition of mouse alpha1/beta1/delta/epsilon nAChR expressed in Xenopus laevis oocytes assessed as inhibition of acetylcholine-induced current by two electrode voltage-clamp assay; settings: Oocyte

Sequence of Neuronal acetylcholine receptor subunit alpha-7 (Rattus norvegicus) (Q05941 whole entry): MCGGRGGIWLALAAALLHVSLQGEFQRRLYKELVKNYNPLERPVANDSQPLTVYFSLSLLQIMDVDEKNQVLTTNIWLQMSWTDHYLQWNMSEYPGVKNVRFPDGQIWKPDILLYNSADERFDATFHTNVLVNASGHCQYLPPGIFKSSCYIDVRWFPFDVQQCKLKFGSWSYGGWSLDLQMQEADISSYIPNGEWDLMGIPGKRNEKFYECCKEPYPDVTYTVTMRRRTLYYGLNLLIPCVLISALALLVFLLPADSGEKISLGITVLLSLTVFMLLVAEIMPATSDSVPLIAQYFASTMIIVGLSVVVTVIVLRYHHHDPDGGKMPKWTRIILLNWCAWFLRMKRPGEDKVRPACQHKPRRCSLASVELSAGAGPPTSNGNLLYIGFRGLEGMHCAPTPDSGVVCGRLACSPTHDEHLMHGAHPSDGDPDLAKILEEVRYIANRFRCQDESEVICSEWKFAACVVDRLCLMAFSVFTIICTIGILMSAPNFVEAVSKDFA
Sequence of Neuronal acetylcholine receptor subunit alpha-7 (Homo sapiens) (P36544 whole entry): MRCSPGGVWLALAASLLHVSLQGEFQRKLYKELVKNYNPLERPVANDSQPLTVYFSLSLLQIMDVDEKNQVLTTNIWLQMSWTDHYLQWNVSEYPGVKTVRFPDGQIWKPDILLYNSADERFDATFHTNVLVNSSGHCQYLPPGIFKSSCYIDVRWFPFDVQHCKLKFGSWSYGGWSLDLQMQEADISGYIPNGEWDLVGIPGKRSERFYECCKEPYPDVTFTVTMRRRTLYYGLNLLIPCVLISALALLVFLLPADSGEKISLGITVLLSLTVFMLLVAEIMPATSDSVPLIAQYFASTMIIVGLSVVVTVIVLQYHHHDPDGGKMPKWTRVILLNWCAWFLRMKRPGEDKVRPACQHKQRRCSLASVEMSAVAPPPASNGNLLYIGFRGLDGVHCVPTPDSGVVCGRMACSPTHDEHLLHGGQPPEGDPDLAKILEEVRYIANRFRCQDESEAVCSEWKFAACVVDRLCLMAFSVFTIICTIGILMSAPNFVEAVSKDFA

Q: Which inhibition (Oocyte [1]) does the source give for CC[C@H](C)[C@@H]1NC(=O)[C@H](CC(=O)O)NC(=O)[C@@H]2CCCN2C(=O)[C@H](CC(N)=O)NC(=O)[C@H](CCC(N)=O)NC(=O)[C@H](CC(C)C)NC(=O)[C@H]([C@@H](C)CC)NC(=O)[C@@H]2CSSC[C@H](NC(=O)[C@@H](N)CC(=O)O)C(=O)N[C@@H](CSSC[C@@H](C(N)=O)NC1=O)C(=O)N[C@@H](CO)C(=O)N[C@@H](CCC(=O)O)C(=O)N1CCC[C@H]1C(=O)N1CCC[C@H]1C(=O)N2 (H-DCCSEPPCILQNPDIC-NH2; disulfide 2-8, 3-16) here?
A: The inhibition was “inactive”.

Q: What about the inhibition [2] of the same molecule?
A: The inhibition was “inactive”.

Q: What about the inhibition [3] of the same molecule?
A: The inhibition was “inactive”.

Q: And the inhibition [4]?
A: The inhibition was “inactive”.

Q: What about the inhibition [5] of the same molecule?
A: Its inhibition is “inactive”.

Q: What about the inhibition [6] of the same molecule?
A: Its inhibition is “inactive”.

Q: And the inhibition [7]?
A: Its inhibition is “inactive”.

Q: What about the inhibition (Oocyte [8]) of the same molecule?
A: Its inhibition is “inactive”.

Q: And the inhibition [9]?
A: Its inhibition is “inactive”.

Q: What about the inhibition [10] of the same molecule?
A: Its inhibition is “inactive”.

Q: What about the inhibition [11] of the same molecule?
A: Its inhibition is “inactive”.

Q: And the inhibition [12]?
A: The inhibition was “inactive”.

Q: What about the inhibition [13] of the same molecule?
A: Its inhibition is “inactive”.

Q: And the inhibition (Oocyte [14])?
A: The inhibition was “inactive”.

Q: And the inhibition [15]?
A: The inhibition was “inactive”.

Q: And the inhibition [16]?
A: The inhibition was “inactive”.

Q: What about the inhibition [17] of the same molecule?
A: The inhibition was “inactive”.

Q: And the inhibition (Oocyte [18])?
A: Its inhibition is “inactive”.

Q: What about the inhibition [19] of the same molecule?
A: Its inhibition is “inactive”.

Q: And the inhibition [20]?
A: The inhibition was “inactive”.

Q: What about the inhibition [21] of the same molecule?
A: The inhibition was “inactive”.

Q: What about the inhibition (Oocyte [22]) of the same molecule?
A: The inhibition was “inactive”.

Q: With CC[C@H](C)[C@@H]1NC(=O)[C@H](CC(=O)O)NC(=O)[C@@H]2CCCN2C(=O)[C@H](CC(N)=O)NC(=O)[C@H](CCC(N)=O)NC(=O)[C@H](CC(C)C)NC(=O)[C@H]([C@@H](C)CC)NC(=O)[C@@H]2CSSC[C@H](NC(=O)C(N)CC(=O)O)C(=O)N[C@@H](CSSC[C@@H](C(N)=O)NC1=O)C(=O)N[C@@H](CO)C(=O)N[C@@H](C)C(=O)N1CCC[C@H]1C(=O)N1CCC[C@H]1C(=O)N2 (stereo not given in full) (H-[ξD]CCSAPPCILQNPDIC-NH2; disulfide 2-8, 3-16) as the molecule, how does the IC50 [23] read?
A: Its IC50 is 0.112 µM.

Q: What about the IC50 [24] of the same molecule?
A: Its IC50 is greater than 10 µM.

Q: And the IC50 [25]?
A: The IC50 was greater than 10 µM.
